{
  "source": "patent EP0879051B9",
  "about": "“RATE-CONTROLLED TRANSDERMAL ADMINISTRATION OF RISPERIDONE” (JANSSEN PHARMACEUTICA N.V., priority 1995, dated 1996)",
  "assay": "In vitro transdermal permeation of risperidone, two-compartment diffusion cell",
  "format": "in vitro ADME, hairless rats",
  "description": "Experimental Part : In vitro study of the transdermal permeation of risperidone.\nAn in vitro model using a vertical, two-compartment diffusion cell assembly mounted with freshly excised full thickness abdominal skin of hairless rats (Iffa credo) was used in this study. […] The receptor solution in all experiments consisted of Hanks Balanced Salt Solution (Gibco BRL) with sodium azide). The skin permeation profile was followed for up to 50 h by sampling the receptor solution and assaying the drug concentration by measuring the radioactivity (Ready Safe, Beckmann-Wallac 1410LKB). The ratio of the cumulated quantities detected in the receptor compartment to the skin area (ng/cm^2) were plotted in function of the time and the flux of risperidone through the skin in the presence of various solvents and skin permeation enhancers was deduced from the linear part of the plotted results.",
  "key": {"[1]": {"conditions": "Experiment 2: donor borate buffer pH 10, 0.1 M (900 µl/ml) + ethanol (95%; 100 µl/ml) + risperidone (100 µg/ml)"}, "[2]": {"conditions": "Experiment 4: donor propylene glycol + lauric acid (LA) 5%, risperidone 10 mg/ml"}, "[3]": {"conditions": "Experiment 4: donor propylene glycol + oleic acid (OA) 5%, risperidone 10 mg/ml"}, "[4]": {"conditions": "donor propylene glycol, 0% enhancer, risperidone 10 mg/ml"}},
  "data": [
    {"smiles": "Cc1nc2n(c(=O)c1CCN1CCC(c3noc4cc(F)ccc34)CC1)CCCC2", "note": "[risperidone, 3-[2-[4-(6-fluoro-1,2-benzisoxazol-3-yl)-1-piperidinyl]ethyl]-6,7,8,9-tetrahydro-2-methyl-4H-pyrido[1,2-a]pyrimidin-4-one]", "values": [
      {"measurement": "flux", "setting": "Experiment 1: donor borate buffer pH 10, 0.1 M + risperidone at 40mg/ml", "value": 0.181, "unit": "µg/cm^2.h"},
      {"measurement": "flux", "setting": "[1]", "value": 0.869, "unit": "µg/cm^2.h"},
      {"measurement": "latency period", "setting": "[1]", "value": 13.9, "unit": "h"},
      {"measurement": "flux (1%)", "setting": "Experiment 3: donor propylene glycol + eucalyptus oil 1%, risperidone 10 mg/ml", "value": 4.54, "unit": "µg/cm^2.h"},
      {"measurement": "latency period (5%)", "setting": "Experiment 3: donor propylene glycol + eucalyptus oil 5%, risperidone 10 mg/ml", "value": 6.2, "unit": "h"},
      {"measurement": "flux (5%)", "setting": "Experiment 3: donor propylene glycol + eucalyptus oil 5%, risperidone 10 mg/ml, very high flux probably due to skin damage", "value": 126.74, "unit": "µg/cm^2.h"},
      {"measurement": "latency period (LA %)", "setting": "Experiment 3: donor propylene glycol + eucalyptus oil (printed 'LA %'), risperidone 10 mg/ml", "value": 15.2, "unit": "h"},
      {"measurement": "flux (5% LA)", "setting": "[2]", "value": 15.39, "unit": "µg/cm^2.h"},
      {"measurement": "latency period (5% LA)", "setting": "[2]", "value": 4.3, "unit": "h"},
      {"measurement": "flux (5% OA)", "setting": "[3]", "value": 18.9, "unit": "µg/cm^2.h"},
      {"measurement": "latency period (5% OA)", "setting": "[3]", "value": 17, "unit": "h"},
      {"measurement": "flux (0%)", "setting": "[4]", "value": 3.89, "unit": "µg/cm^2.h"},
      {"measurement": "latency period (0%)", "setting": "[4]", "value": 14.2, "unit": "h"}
    ]}
  ]
}
